{"source": "PubChem BioAssay AID1918938", "about": "(Molecular Pharmacology Branch, DTP, NCI, 2023);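 also: spheroids exposed to agents for seven days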;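 as to viability, T/C: 100% = DMSO vehicle control wells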", "test_system": "556581-035-R-J1-PDC complex spheroid viability", "experiment": "Anticancer human tumor 556581-035-R-J1-PDC patient-derived ovarian carcinoma cell line growth inhibition", "conditions": "for IC50: curve of first compound; for viability, T/C: stronger effect = lower value", "from_the_text": "Multicellular complex tumor spheroid response to LSD1 Inhibitor Iadademstat in combination with a variety of drugs and investigational agents in selected tumor cell lines\nThe current study was undertaken to assess response to LSD1 inhibitors in combination with standard-of-care drugs and investigational agents in solid tumor complex spheroid models as well as in the K-562 leukemia. Complex spheroids include a stromal component modeled by human endothelial cells (HUVEC) and fibroblasts modeled by human mesenchymal stem cells (MSCs). The concentration ranges selected for each drug and investigational agent were based upon clinically achievable concentrations if the clinical Cmax of the agent was known.\nCompounds. The drugs and investigational agents used in this study are listed on Table 1. All of the agents used, including staurosporine (NSC755774) and gemcitabine (NSC613327), were obtained from the Developmental Therapeutics Program, NCI. FDA-approved anticancer drugs are available from the NCI at http://dtp.nci.nih.gov/branches/dscb/oncology_drugset_explanation.html. Drugs and investigational agents were >95% pure by proton nuclear magnetic resonance (NMR) and liquid chromatography/mass spectrometry (LC/MS). Stock solutions were prepared at 400x in DMSO, stored at -70 degrees C, and diluted in fresh medium prior to their use. The final concentration of DMSO in cell culture wells never exceeded 0.25% (v/v). The FDA-approved anticancer drug set is available from the Developmental Therapeutics Program at https://dtp.cancer.gov/organization/dscb/obtaining/available_plates.htm. All drugs and investigational agents were tested over a range starting from a high concentration at or near the clinical Cmax and decreasing in half-log increments. If the clinical Cmax for an agent had not been determined, the highest concentration tested was 10 microM.\nCell Lines. The patient-derived cancer cell (PDC) lines: 292921-168-R-J2-PDC, K24384-001-R-PDC, and 521955-158-R2-J5-PDC pancreatic carcinomas, 556581-035-R-J1 ovarian carcinoma, 324938-238-R-J1-PDC, 855422-203-R-J1-PDC and 883617-216-R-J1-PDC urothelial bladder carcinomas, 743489-274-T-PDC renal cell carcinoma, 138582-R-J1 Merkel cell tumor, K60290-347-R-J1 and K57222-313-R-J1-PDC glioblastomas, 653999-131-R-J2-PDC, LG0703-F948-PDC, and 349418-098-R-PDC non-small cell lung carcinomas, 885512-296-R-J2-PDC, 171881-019-R-J1-PDC breast carcinomas and 186277-243-T-J2-PDC and 233499-124-R-J2-PDC colon carcinomas were obtained from the NCI Patient-Derived Models Repository (PDMR, https://pdmr.cancer.gov). The established cell lines NCI/ADR-RES (RRID:CVCL_14520 and OVCAR-5 (RRID:CVCL_1628) ovarian carcinomas, 786-O (RRID:CVCL_1051) and A498 (RRID:CVCL_A498) renal cell carcinoma, NCI-H211 (ATCC, cat. CRL-5824; RRID:CVCL_1529), NCI-H196 (ATCC, cat. CRL-5823, RRID:CVCL_1509), SW 1271 (ATCC, cat. CRL-2177, RRID:CVCL_1716) and NCI-H1876 (ATCC, cat. CRL-5902, RRID:CVCL_1503) small cell lung carcinomas, MDA-MB-231 (RRID:CVCL_0062) and MDA-MB-468 (RRID:CVCL_0419)breast carcinomas (10-12). Pooled donor human umbilical vein endothelial cells (HUVEC, Lonza, cat. CC-2519) and human mesenchymal stem cells (hMSC, Lonza, cat. PT-2501) were purchased from Lonza (Walkersville, MD).\nCell Culture. All cells were maintained in an incubator at 37 degrees C and 5% CO2 with 95% humidity. The PDC lines were cultured according to standard operating procedures established by the NCI PDMR (https://pdmr.cancer.gov). Briefly all PDCs were thawed and cultured in Matrigel-coated flasks prepared with a working solution of 1X Ham's F-12 nutrient mix, without supplementation (Invitrogen, Waltham, MA, cat. 11765054), 100 U/mL penicillin-streptomycin (Invitrogen, cat. 15140122), and 2.5% Matrigel (Corning Inc., Corning, NY, cat. 354248) for the first three passages. […]"}
{"smiles": "CC[C@@]1(O)C(=O)OCc2c1cc1n(c2=O)Cc2cc3c(CN(C)C)c(O)ccc3nc2-1", "note": "+ NC1CC1c1ccc(-c2cccc(O)c2)cc1", "values": [{"measurement": "IC50", "setting": "second compound 0.1 µM", "result": 5.86, "unit": "nM"}, {"measurement": "IC50", "setting": "second compound 0.316 µM", "result": 5.85, "unit": "nM"}, {"measurement": "IC50", "setting": "second compound 1 µM", "result": 5.62, "unit": "nM"}, {"measurement": "IC50", "setting": "second compound 3.16 µM", "result": 6.11, "unit": "nM"}, {"measurement": "IC50", "setting": "second compound 10 µM", "result": 5.17, "unit": "nM"}, {"measurement": "viability, T/C", "setting": "second compound 0.1 µM, first compound 0.000316 µM", "result": 97.9, "unit": "%"}, {"measurement": "viability, T/C", "setting": "second compound 0.1 µM, first compound 0.001 µM", "result": 88.2, "unit": "%"}, {"measurement": "viability, T/C", "setting": "second compound 0.1 µM, first compound 0.00316 µM", "result": 67, "unit": "%"}, {"measurement": "viability, T/C", "setting": "second compound 0.1 µM, first compound 0.01 µM", "result": 34.9, "unit": "%"}, {"measurement": "viability, T/C", "setting": "second compound 0.1 µM, first compound 0.0316 µM", "result": 16.6, "unit": "%"}, {"measurement": "viability, T/C", "setting": "second compound 0.1 µM, first compound 0.1 µM", "result": 7.12, "unit": "%"}, {"measurement": "viability, T/C", "setting": "second compound 0.316 µM, first compound 0.000316 µM", "result": 95.5, "unit": "%"}, {"measurement": "viability, T/C", "setting": "second compound 0.316 µM, first compound 0.001 µM", "result": 104, "unit": "%"}, {"measurement": "viability, T/C", "setting": "second compound 0.316 µM, first compound 0.00316 µM", "result": 64.8, "unit": "%"}, {"measurement": "viability, T/C", "setting": "second compound 0.316 µM, first compound 0.01 µM", "result": 34.5, "unit": "%"}, {"measurement": "viability, T/C", "setting": "second compound 0.316 µM, first compound 0.0316 µM", "result": 16.6, "unit": "%"}, {"measurement": "viability, T/C", "setting": "second compound 0.316 µM, first compound 0.1 µM", "result": 6.13, "unit": "%"}, {"measurement": "viability, T/C", "setting": "second compound 1 µM, first compound 0.000316 µM", "result": 91.2, "unit": "%"}, {"measurement": "viability, T/C", "setting": "second compound 1 µM, first compound 0.001 µM", "result": 95.1, "unit": "%"}, {"measurement": "viability, T/C", "setting": "second compound 1 µM, first compound 0.00316 µM", "result": 68.4, "unit": "%"}, {"measurement": "viability, T/C", "setting": "second compound 1 µM, first compound 0.01 µM", "result": 30.3, "unit": "%"}, {"measurement": "viability, T/C", "setting": "second compound 1 µM, first compound 0.0316 µM", "result": 13.3, "unit": "%"}, {"measurement": "viability, T/C", "setting": "second compound 1 µM, first compound 0.1 µM", "result": 6.38, "unit": "%"}, {"measurement": "viability, T/C", "setting": "second compound 3.16 µM, first compound 0.000316 µM", "result": 103, "unit": "%"}, {"measurement": "viability, T/C", "setting": "second compound 3.16 µM, first compound 0.001 µM", "result": 96.1, "unit": "%"}, {"measurement": "viability, T/C", "setting": "second compound 3.16 µM, first compound 0.00316 µM", "result": 69.9, "unit": "%"}, {"measurement": "viability, T/C", "setting": "second compound 3.16 µM, first compound 0.01 µM", "result": 34.7, "unit": "%"}, {"measurement": "viability, T/C", "setting": "second compound 3.16 µM, first compound 0.0316 µM", "result": 14.4, "unit": "%"}, {"measurement": "viability, T/C", "setting": "second compound 3.16 µM, first compound 0.1 µM", "result": 6.43, "unit": "%"}, {"measurement": "viability, T/C", "setting": "second compound 10 µM, first compound 0.000316 µM", "result": 87.9, "unit": "%"}, {"measurement": "viability, T/C", "setting": "second compound 10 µM, first compound 0.001 µM", "result": 79.8, "unit": "%"}, {"measurement": "viability, T/C", "setting": "second compound 10 µM, first compound 0.00316 µM", "result": 59, "unit": "%"}, {"measurement": "viability, T/C", "setting": "second compound 10 µM, first compound 0.01 µM", "result": 35.6, "unit": "%"}, {"measurement": "viability, T/C", "setting": "second compound 10 µM, first compound 0.0316 µM", "result": 20.7, "unit": "%"}, {"measurement": "viability, T/C", "setting": "second compound 10 µM, first compound 0.1 µM", "result": 5.8, "unit": "%"}]}
{"smiles": "COc1cc(C2c3cc4c(cc3C(OC3OC5COC(C)OC5C(O)C3O)C3COC(=O)C23)OCO4)cc(OC)c1O", "note": "(stereo not given) + NC1CC1c1ccc(-c2cccc(O)c2)cc1", "values": [{"measurement": "IC50", "setting": "second compound 0.1 µM", "result": 164, "unit": "nM"}, {"measurement": "IC50", "setting": "second compound 0.316 µM", "result": 116, "unit": "nM"}, {"measurement": "IC50", "setting": "second compound 1 µM", "result": 185, "unit": "nM"}, {"measurement": "IC50", "setting": "second compound 3.16 µM", "result": 316, "unit": "nM"}, {"measurement": "IC50", "setting": "second compound 10 µM", "result": 321, "unit": "nM"}, {"measurement": "viability, T/C", "setting": "second compound 0.1 µM, first compound 0.00949 µM", "result": 92.1, "unit": "%"}, {"measurement": "viability, T/C", "setting": "second compound 0.1 µM, first compound 0.03 µM", "result": 76, "unit": "%"}, {"measurement": "viability, T/C", "setting": "second compound 0.1 µM, first compound 0.0949 µM", "result": 56.4, "unit": "%"}, {"measurement": "viability, T/C", "setting": "second compound 0.1 µM, first compound 0.3 µM", "result": 42.7, "unit": "%"}, {"measurement": "viability, T/C", "setting": "second compound 0.1 µM, first compound 0.949 µM", "result": 30.3, "unit": "%"}, {"measurement": "viability, T/C", "setting": "second compound 0.1 µM, first compound 3 µM", "result": 23.8, "unit": "%"}, {"measurement": "viability, T/C", "setting": "second compound 0.316 µM, first compound 0.00949 µM", "result": 87.8, "unit": "%"}, {"measurement": "viability, T/C", "setting": "second compound 0.316 µM, first compound 0.03 µM", "result": 75.6, "unit": "%"}, {"measurement": "viability, T/C", "setting": "second compound 0.316 µM, first compound 0.0949 µM", "result": 52.9, "unit": "%"}, {"measurement": "viability, T/C", "setting": "second compound 0.316 µM, first compound 0.3 µM", "result": 33.9, "unit": "%"}, {"measurement": "viability, T/C", "setting": "second compound 0.316 µM, first compound 0.949 µM", "result": 31, "unit": "%"}, {"measurement": "viability, T/C", "setting": "second compound 0.316 µM, first compound 3 µM", "result": 22.6, "unit": "%"}, {"measurement": "viability, T/C", "setting": "second compound 1 µM, first compound 0.00949 µM", "result": 90.4, "unit": "%"}, {"measurement": "viability, T/C", "setting": "second compound 1 µM, first compound 0.03 µM", "result": 79.6, "unit": "%"}, {"measurement": "viability, T/C", "setting": "second compound 1 µM, first compound 0.0949 µM", "result": 53.6, "unit": "%"}, {"measurement": "viability, T/C", "setting": "second compound 1 µM, first compound 0.3 µM", "result": 46.3, "unit": "%"}, {"measurement": "viability, T/C", "setting": "second compound 1 µM, first compound 0.949 µM", "result": 29.9, "unit": "%"}, {"measurement": "viability, T/C", "setting": "second compound 1 µM, first compound 3 µM", "result": 18.3, "unit": "%"}, {"measurement": "viability, T/C", "setting": "second compound 3.16 µM, first compound 0.00949 µM", "result": 89.5, "unit": "%"}, {"measurement": "viability, T/C", "setting": "second compound 3.16 µM, first compound 0.03 µM", "result": 72, "unit": "%"}, {"measurement": "viability, T/C", "setting": "second compound 3.16 µM, first compound 0.0949 µM", "result": 63.6, "unit": "%"}, {"measurement": "viability, T/C", "setting": "second compound 3.16 µM, first compound 0.3 µM", "result": 40.5, "unit": "%"}, {"measurement": "viability, T/C", "setting": "second compound 3.16 µM, first compound 0.949 µM", "result": 54.4, "unit": "%"}, {"measurement": "viability, T/C", "setting": "second compound 3.16 µM, first compound 3 µM", "result": 18.4, "unit": "%"}, {"measurement": "viability, T/C", "setting": "second compound 10 µM, first compound 0.00949 µM", "result": 83.6, "unit": "%"}, {"measurement": "viability, T/C", "setting": "second compound 10 µM, first compound 0.03 µM", "result": 77.8, "unit": "%"}, {"measurement": "viability, T/C", "setting": "second compound 10 µM, first compound 0.0949 µM", "result": 59.9, "unit": "%"}, {"measurement": "viability, T/C", "setting": "second compound 10 µM, first compound 0.3 µM", "result": 51.6, "unit": "%"}, {"measurement": "viability, T/C", "setting": "second compound 10 µM, first compound 0.949 µM", "result": 39.5, "unit": "%"}, {"measurement": "viability, T/C", "setting": "second compound 10 µM, first compound 3 µM", "result": 27.8, "unit": "%"}]}
